The values below come from patent US8623855B2, “Azetidinone compounds and medical use thereof” (Zhejiang Hisun Pharmaceutical Co., Ltd., priority 2009, dated 2014).

The experiment has as its system hypercholesterolemia golden hamster model. As to the kind of experiment: In vivo pharmacodynamic screening in hypercholesterolemia model of golden hamster (plasma TC and LDL-C). The conditions noted are these: for inhibition in vivo at 0.4 mg/kg / inhibition in vivo at 2 mg/kg / inhibition in vivo at 10 mg/kg / inhibition in vivo at 5 mg/kg / inhibition in vivo at 1 mg/kg: Mesocricetus auratus, po, 168 h; for LDL-C after administration / TC after administration / LDL after administration: 1 week, plasma; for reduction of plasma TC and LDL-C levels (in words): significant statistical difference; for effect of lowering cholesterol (screening result in words): in vivo pharmacodynamic screening test, Ezetimibe as positive control; for efficacy compared with the positive control (in words): positive control Ezetimibe. Here is the method: 1. Establishment of Hypercholesterolemia Model of Golden Hamster:
The animals were subjected to acclimation feeding for 1 week with free feeding and drinking under a lighting condition of 10 h/14 h. On Day 8, the animals were raised with high fat feed (consisting of 0.5% cholesterol, 20% palm oil, 79.5% basal feed) for 1 week. Then, each animal was anesthetized by ether. After weighing, 0.5 ml blood was obtained from orbital vein, anticoagulated with heparin and centrifuged at 5000 rpm for 10 min. The plasma was collected and the levels of plasma TC (total cholesterol) and LDL-C (low density lipoprotein cholesterol) were determined by automatic biochemical analyzer. Animals with plasma TC of 9-15 mmol/L were selected as model animals (refer to the following reference for the method of animal modeling: Burrier, R. E., Smith, A. A., Mcgregor, D. G, Hoos, L. M., Zilli, D. L., Davis, H. R. The effect of acyl CoA: cholesterol acyltransferase inhibition on the uptake, esterification and secretion of cholesterol by the hamster small intestine. J. Pharm. Exp. Ther., 1995, 272, 156-163).
The animals were grouped according to TC and LDL-C levels and weight with 6 animals per group. Ezetimibe was used as positive control. The animals were intragastrically administered at a volume of 5 ml/kg for 1 week. Each animal was anesthetized by ether. After weighing, 0.5 ml blood was taken from orbital vein, anticoagulated with heparin, and centrifuged at 5000 rpm for 10 min. The plasma was collected and plasma TC (total cholesterol) and LDL-C (low density lipoprotein cholesterol) levels were determined by automatic biochemical analyzer to evaluate the efficacy of the compounds.

Setting [1] is: Table 2, read-out: Reducing LDL-C %.
The mark [2] stands for this setting: Table 2, read-out: Reducing TC %.
Setting [3] is: Table 1, 0.4 mg/kg intragastric.
[4] abbreviates: golden hamster hypercholesterolemic model.
Where [5] appears, read: Table 12, read-out: Reducing LDL-C %.
Where [6] appears, read: Table 12, read-out: Reducing TC %.
The mark [7] stands for this setting: Table 11, 10 mg/kg intragastric.
Setting [8] is: Table 11, baseline of group dosed 10 mg/kg.
The mark [9] stands for this setting: Table 11, baseline of group dosed 3 mg/kg.
Where [10] appears, read: Table 10, read-out: Reducing LDL-C %.
Setting [11] is: Table 10, read-out: Reducing TC %.
[12] abbreviates: Table 6, read-out: Reducing LDL-C %.
The mark [13] stands for this setting: Table 6, read-out: Reducing TC %.

Read-outs that look alike come from different tables or passages of the source.

Turning to `O=C1[C@H](C/C=C(/CO)c2ccc(F)cc2)[C@@H](c2ccc(O)cc2)N1c1ccc(F)cc1` [I-1(E), (3R,4S)-1-(4-fluorophenyl)-3-[(E)-3-(4-fluorophenyl)-4-hydroxy-but-2-enyl]-4-(4-hydroxyphenyl)azetidin-2-one], the “effect of lowering cholesterol (screening result in words)” value (“effect of lowering cholesterol” for short) is recorded as “certain effect on cholesterol-lowering”. Further, under setting [1], the inhibition in vivo at 0.4 mg/kg was -16.4%, the inhibition in vivo at 2 mg/kg was 0% and the inhibition in vivo at 10 mg/kg amounted to 30.7%. Further, under setting [2], the inhibition in vivo at 0.4 mg/kg was -26.1%, the inhibition in vivo at 2 mg/kg was -20.9% and the inhibition in vivo at 10 mg/kg turned out to be 11.7%. Under setting [3], this molecule had an LDL-C after administration of 2.84 ± 0.59 mmol/L and a TC after administration of 12.42 ± 1.4 mmol/L. For the setting “Table 1, 2 mg/kg intragastric”, this molecule had an LDL-C after administration of 2.21 ± 0.37 mmol/L and a TC after administration of 11.19 ± 0.69 mmol/L. Under “Table 1, 10 mg/kg intragastric”, the LDL-C after administration worked out at 1.74 ± 0.62 mmol/L and the TC after administration is on record as 8.7 ± 0.93 mmol/L. Where the note is “Table 1, baseline of group dosed 0.4 mg/kg”, this molecule returned an LDL-C before administration of 2.44 ± 0.46 mmol/L. Where the note is “Table 1, baseline of group dosed 2 mg/kg”, this molecule showed an LDL-C before administration of 2.21 ± 0.47 mmol/L. Also, the LDL-C before administration (Table 1, baseline of group dosed 10 mg/kg) stood at 2.51 ± 0.91 mmol/L. Under setting [4], the “reduction of plasma TC and LDL-C relative to the amount reduced by Ezetimibe and I-1 (Z)” value is “less than 50%”; the “reduction of plasma TC and LDL-C levels (in words)” value (“reduction … (in words)” below) was “can also lower plasma TC and LDL-C levels”.
As for `COc1ccc([C@@H]2[C@@H](C/C=C(\CO)c3ccc(F)cc3)C(=O)N2c2ccc(F)cc2)cc1` [I-2(Z)], the “effect of lowering cholesterol” value is “have the effect of lowering cholesterol” and the “efficacy compared with the positive control (in words)” value is “more similar to the positive control”. Moreover, the inhibition in vivo at 5 mg/kg under setting [5] amounted to 63.4%. Besides, the inhibition in vivo at 5 mg/kg under setting [6] came to 62.2%. Under setting [7], this molecule yielded an LDL-C after administration of 1.01 and a TC after administration of 4.82. Also, under setting [8], the LDL-C before administration was 2.76 ± 0.43 and the TC before administration was found to be 12.74 ± 1.32. Also, the “reduction … (in words)” value under setting [4] is “can significantly reduce the plasma TC and LDL-C levels”.
Turning to `O=C1[C@H](C/C=C(\CO)c2ccc(F)cc2)[C@@H](c2ccc(Oc3ccccc3)cc2)N1c1ccc(F)cc1` [I-3(Z)], the “effect of lowering cholesterol” value is “have the effect of lowering cholesterol” and the “efficacy compared with the positive control (in words)” value was “more similar to the positive control”. Further, the inhibition in vivo at 10 mg/kg under setting [5] is 66.3%. For the same molecule, the inhibition in vivo at 10 mg/kg under setting [6] was determined as 50.8%. For the same molecule, under setting [7], the LDL-C after administration was 1.14 and the TC after administration came to 6.23. Also, under setting [8], the LDL-C before administration is reported as 3.38 ± 0.84 and the TC before administration was 12.67 ± 1.35. The “reduction … (in words)” value under setting [4] was “can significantly reduce the plasma TC and LDL-C levels”.
In the case of `O=C1[C@H](C/C=C(\CO)c2ccc(F)cc2)[C@@H](c2ccc(OCc3ccccc3)cc2)N1c1ccc(F)cc1` [I-4(Z)], the “effect of lowering cholesterol” value is listed as “have the effect of lowering cholesterol” and the “efficacy compared with the positive control (in words)” value is recorded as “more similar to the positive control”. The inhibition in vivo at 5 mg/kg under setting [5] worked out at 53.5%. For the same molecule, under setting [6], the inhibition in vivo at 5 mg/kg was determined as 49.1%. In addition, for the setting “Table 11, 3 mg/kg intragastric”, the LDL-C after administration worked out at 1.51 and the TC after administration turned out to be 6.48. Under setting [9], the LDL-C before administration was 3.25 ± 0.79 and the TC before administration came out at 12.73 ± 1.27. Further, the “reduction … (in words)” value under setting [4] is “can significantly reduce the plasma TC and LDL-C levels”.
`O=C(Oc1ccc([C@@H]2[C@@H](C/C=C(\CO)c3ccc(F)cc3)C(=O)N2c2ccc(F)cc2)cc1)c1ccccc1` [I-5(Z), (3R,4S)-4-(4-benzoyloxyphenyl)-1-(4-fluorophenyl)-3-[(Z)-3-(4-fluorophenyl)-4-hydroxy-but-2-enyl]azetidin-2-one]: the “effect of lowering cholesterol” value was “have the effect of lowering cholesterol”. Besides, under setting [10], the inhibition in vivo at 1 mg/kg was found to be 30.7% and the inhibition in vivo at 10 mg/kg amounted to 68.1%. Under setting [11], the inhibition in vivo at 1 mg/kg is 31.2% and the inhibition in vivo at 10 mg/kg was determined as 62.7%. In addition, under “Table 9, 1 mg/kg intragastric”, the LDL after administration amounted to 2.18 mmol/L and the TC after administration is on record as 10.55 mmol/L. Further, for the setting “Table 9, 10 mg/kg intragastric”, the LDL after administration was determined as 1.0 mmol/L and the TC after administration is reported as 5.73 mmol/L. Moreover, the “reduction … (in words)” value under setting [4] is “can significantly reduce the plasma TC and LDL-C levels”.
As to `CC(=O)Oc1ccc([C@@H]2[C@@H](C/C=C(\CO)c3ccc(F)cc3)C(=O)N2c2ccc(F)cc2)cc1` [I-6(Z), (3R,4S)-4-(4-acetoxyphenyl)-1-(4-fluorophenyl)-3-[(Z)-3-(4-fluorophenyl)-4-hydroxy-but-2-enyl]azetidin-2-one], the “effect of lowering cholesterol” value is recorded as “have the effect of lowering cholesterol” and the “efficacy compared with the positive control (in words)” value is recorded as “more similar to the positive control”. Under setting [10], the inhibition in vivo at 1 mg/kg was found to be 50.2% and the inhibition in vivo at 10 mg/kg was 70.4%. Under setting [11], the inhibition in vivo at 1 mg/kg amounted to 51.5% and the inhibition in vivo at 10 mg/kg is 65.6%. Where the note is “Table 9, 1 mg/kg intragastric”, the LDL after administration is given as 1.57 mmol/L and the TC after administration is listed as 7.45 mmol/L. In addition, for the setting “Table 9, 10 mg/kg intragastric”, the LDL after administration is listed as 0.93 mmol/L and the TC after administration is reported as 5.28 mmol/L. Also, under setting [4], the “reduction … (in words)” value was “can significantly reduce the plasma TC and LDL-C levels”.
Consider `CC(=O)OC/C(=C\C[C@H]1C(=O)N(c2ccc(F)cc2)[C@@H]1c1ccc(OC(C)=O)cc1)c1ccc(F)cc1` [I-11(Z), (3R,4S)-3-[(Z)-4-acetoxy-3-(4-fluorophenyl)-but-2-enyl]-4-(4-acetoxyphenyl)-1-(4-fluorophenyl)azetidin-2-one], for which the “effect of lowering cholesterol” value was “have the effect of lowering cholesterol”. Also, under setting [10], the inhibition in vivo at 1 mg/kg was determined as 47.7% and the inhibition in vivo at 10 mg/kg is 59.2%. Moreover, under setting [11], the inhibition in vivo at 1 mg/kg worked out at 48% and the inhibition in vivo at 10 mg/kg is 60.2%. Where the note is “Table 9, 1 mg/kg intragastric”, the LDL after administration worked out at 1.65 mmol/L and the TC after administration is reported as 7.98 mmol/L. For the same molecule, under “Table 9, 10 mg/kg intragastric”, the LDL after administration is 1.28 mmol/L and the TC after administration is 6.11 mmol/L. The “reduction … (in words)” value under setting [4] is “can significantly reduce the plasma TC and LDL-C levels”.
Regarding `CC(=O)OC/C(=C\C[C@H]1C(=O)N(c2ccc(F)cc2)[C@@H]1c1ccc(O)cc1)c1ccc(F)cc1` [I-12(Z), (3R,4S)-3-[(Z)-4-acetoxy-3-(4-fluorophenyl)-but-2-enyl]-1-(4-fluorophenyl)-4-(4-hydroxyphenyl)azetidin-2-one], the “effect of lowering cholesterol” value is on record as “have the effect of lowering cholesterol”. Moreover, under setting [12], the inhibition in vivo at 1 mg/kg turned out to be 62.8% and the inhibition in vivo at 10 mg/kg came out at 71.5%. Moreover, under setting [13], the inhibition in vivo at 1 mg/kg came to 50.9% and the inhibition in vivo at 10 mg/kg was determined as 54.8%. For the setting “Table 5, 1 mg/kg intragastric”, the LDL after administration was found to be 1.58 mmol/L and the TC after administration was 5.29 mmol/L. For the setting “Table 5, 10 mg/kg intragastric”, this molecule displayed an LDL after administration of 1.34 mmol/L and a TC after administration of 4.86 mmol/L. Moreover, under setting [4], the “reduction … (in words)” value is “can significantly reduce the plasma TC and LDL-C levels”.
